Source: patent US7576128B2 (priority 2004, dated 2009)
Changes are numbered by the printed parent chain.

Columns and labels:
androgen receptor = biological target: T1, androgen receptor (Homo sapiens, UniProt P10275); assay: AR antagonist cell assay, MDA-MB453-MMTV clone 54-19 luciferase reporter; format: cell-based; conditions: read-out: AR Cell IC50; MDA-MB453-MMTV clone 54-19, 100 pM DHT, 17 hr; mean of multiple tests
T1 sequence (P10275 1-920 Q868H): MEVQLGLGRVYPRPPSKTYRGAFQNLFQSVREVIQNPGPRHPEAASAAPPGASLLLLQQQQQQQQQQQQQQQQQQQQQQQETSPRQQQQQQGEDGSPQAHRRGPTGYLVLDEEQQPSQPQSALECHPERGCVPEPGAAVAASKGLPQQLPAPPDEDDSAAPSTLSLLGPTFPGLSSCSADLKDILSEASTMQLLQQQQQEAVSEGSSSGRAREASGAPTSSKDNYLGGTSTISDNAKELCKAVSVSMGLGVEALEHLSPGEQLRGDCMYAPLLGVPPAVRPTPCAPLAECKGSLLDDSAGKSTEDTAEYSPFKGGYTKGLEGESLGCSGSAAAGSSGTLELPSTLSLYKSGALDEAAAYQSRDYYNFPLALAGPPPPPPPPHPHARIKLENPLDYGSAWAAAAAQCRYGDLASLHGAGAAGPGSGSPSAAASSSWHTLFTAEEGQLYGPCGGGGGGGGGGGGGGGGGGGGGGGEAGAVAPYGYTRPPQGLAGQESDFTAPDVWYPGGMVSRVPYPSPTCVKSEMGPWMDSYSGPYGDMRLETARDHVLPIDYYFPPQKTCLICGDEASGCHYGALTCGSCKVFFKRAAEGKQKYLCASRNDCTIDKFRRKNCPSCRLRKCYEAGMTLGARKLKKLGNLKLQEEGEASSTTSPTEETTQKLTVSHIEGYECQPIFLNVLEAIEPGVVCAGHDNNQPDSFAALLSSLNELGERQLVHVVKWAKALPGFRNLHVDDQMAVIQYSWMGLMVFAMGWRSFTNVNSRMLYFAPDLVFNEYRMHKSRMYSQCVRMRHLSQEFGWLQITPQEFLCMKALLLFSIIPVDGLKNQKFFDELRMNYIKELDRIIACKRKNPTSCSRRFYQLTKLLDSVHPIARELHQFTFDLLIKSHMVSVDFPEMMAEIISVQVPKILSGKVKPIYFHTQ
Description: The compounds ability to antagonize the effects of androgen on the androgen receptor were determined in a whole cell assay as described immediately below.
This cell line is a stable transfected cell line with MDA-MB453 cell background (a human breast tumor cell line expressing androgen receptor). A MMTV minimal promoter containing ARE was first cloned in front of a firefly luciferase reporter gene. Then the cascade was cloned into transfection vector pUV120puro. Electroporation method was used for transfecting MDA-MB-453 cell. Puromycin resistant stable cell line was selected.
• 1. Cells are maintained in culture medium, splitting cells when they reach 80-90% confluence • 2. To test compounds, 10,000 cells/well are plated to opaque 96 cell culture plate in 100 ul/well plating medium, culture for overnight at 37° C. in cell culture incubator • 3. Carefully remove plating medium, then add 80 ul/well of pre-warmed assay medium, add 10 ul/well testing compound (final concentration at) 1000 nM, 200 nM, 40 nM, 8 nM, 1.6 nM, and 0.32 nM), incubate at 37° C. for 30 minutes • 4. Add 10 ul/well freshly prepared DHT (final concentration at 100 pM) to each well, incubate at 37° C. for 17 hr (overnight) • 5.
The results are reported as the mean of multiple tests as described below (the numbers of tests are indicated in the footnote). N.D. denotes that the compound was not tested.

[1] = biological target: T2, hAR (human androgen receptor) (Homo sapiens, UniProt P10275); assay: Competitive binding analysis on baculovirus/Sf9 generated hAR extracts with 3H-DHT tracer
T2 construct: made in house; host or cells: baculovirus/Sf9 insect cells
T2 sequence (P10275 1-920): T1 sequence (P10275 1-920 Q868H) with H868Q
Description: The description below describes how the assay was carried out.
Competitive binding analysis was performed on baculovirus/Sf9 generated hAR extracts in the presence or absence of different concentrations of test agent and a fixed concentration of ^3H-dihydrotestosterone (^3H-DHT) as tracer. This binding assay method is a modification of a protocol previously described (Liao S., et. al. J. Steroid Biochem. 20:11-17 1984). Briefly, progressively decreasing concentrations of compounds are incubated in the presence of hAR extract (Chang et al. P.N.A.S. Vol. 89, pp. 5546-5950,1992), hydroxylapatite, and 1 nM ^3 H-DHT for one hour at 4° C. Subsequently, the binding reactions are washed three times to completely remove excess unbound ^3 H-DHT. hAR bound ^3H-DHT levels are determined in the presence of compounds (=i.e competitive binding) and compared to levels bound when no competitor is present (=i.e. maximum binding). Compound binding affinity to the hAR is expressed as the concentration of compound at which one half of the maximum binding is inhibited.

Male C3H/HeN mice = assay: Modified telogen conversion assay (hair growth, induction of anagen); format: in vivo; conditions: test concentration of 3% w/v, topical
Excerpt: It has been discovered that male C3H/HeN mice may be used in the telogen conversion assay, when evaluating anti-androgen test compounds. Thus, the model relates to a modification of the existing telogen conversion assay. Male C3H/HeN mice approximately 7 weeks old are utilized. These animals are also uniformly in telogen, like their female counterparts. However, once shaven, the androgens inherently present in these male mice inhibit the conversion of the hair follicles to the anagen phase. An anti-androgen will block this androgenic effect and the follicles will convert to anagen, like their female counterparts.
Male C3H/HeN mice, 6 to 7 weeks old (Charles River Laboratories, Raleigh, N.C.) were used for the study. Fur was clipped from the dorsal region of the mice prior to initiation of the study. Only mice with pink skin, a visual indication of the telogen phase, were selected for inclusion in the study.
The test compound was dissolved in a vehicle consisting of propylene glycol (30%) and ethanol (70%) to achieve a concentration of either 0.2% w/v, 0.5% w/v, 1% w/v or 3% w/v. The relevant dose was applied topically to the clipped dorsal region of the mice in one test group (7-10 mice) in a volume of 20 μl/cm^2. A third group of animals received only the vehicle to serve as a control. Treatments were applied twice daily for 4 weeks.
The treatment area was observed and graded every other day for signs of hair growth. The hair growth response was quantified by recording, for each animal, the day on which signs of hair growth first appeared over the treated area. The first sign of anagen was the darkening of skin color as melanocytes in the follicles started to synthesize melanin in preparation for the production of pigmented hairs. […] The percentage of mice showing signs of hair growth in both the treatment group and the control group is graphically depicted in FIG. 1.

[2] = after 7 years of treatment; cited from earlier work

SMILES | IC50 (androgen receptor) | IC50 [1] | rate of hair growth versus vehicle control (Male C3H/HeN mice) | increase in spinal BMD [2]
CC(C)C(O)C(C)(C)COc1ccc(C#N)c(Cl)c1 (stereo not shown) [Example 27, 2-Chloro-4-(3-Hy-droxy-2,2,4-trimethyl-pentyloxy)-benzonitrile] | 0.04 nM | 63 nM | did not exceed that of the vehicle control | 
NCCCC(O)(P(=O)(O)O)P(=O)(O)O [alendronate] |  |  |  | ≤ 11%
